Experimental data from paper PMC11876601 (Molecular Systems Biology, 2025).
Where “and” joins values, the source holds several entries; their conditions need not be identical. Equal values may be shown once. Read-outs that look alike come from different tables or passages of the source.

Tested on: AsPC-1 cells
Experiment: Cell proliferation assay, chemodrug + ATR inhibitor (Incucyte confluence, 72 h);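 also: underlying read-out for every value is AsPC-1 confluence after 72 h incubation at 37 °C and 5% CO2, divided by that well's starting confluence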
Details: for Curve slope / Curve bottom / Curve top: fitted dose-response curve; for Curve bottom / Curve top: relative response; for AsPC-1 viability (ratio) / AsPC-1 viability mean (ratio) / Raw data (confluence at 72 h/confluence at 0 h): Gartisertib experiment; for EC50: Homo sapiens; for Ratio: Response / Response vehicle (mean)
[1] = AsPC1, Experiment ATRi (ATR inhibitor alone)
[2] = AsPC1, Experiment GEM+ATRi_dose1
[3] = AsPC1, Experiment GEM+ATRi_dose2
[4] = AsPC1, Experiment GEM+ATRi_dose3
[5] = replicate R1, titrated drug dose 3 nM
[6] = replicate R1, titrated drug dose 10 nM
[7] = replicate R1, titrated drug dose 30 nM
[8] = replicate R1, titrated drug dose 100 nM
[9] = replicate R1, titrated drug dose 300 nM
[10] = replicate R1, titrated drug dose 1000 nM
[11] = replicate R1, titrated drug dose 3000 nM
[12] = replicate R1, titrated drug dose 10000 nM
[13] = replicate R2, titrated drug dose 3 nM
[14] = replicate R2, titrated drug dose 10 nM
[15] = replicate R2, titrated drug dose 30 nM
[16] = replicate R2, titrated drug dose 100 nM
[17] = replicate R2, titrated drug dose 300 nM
[18] = replicate R2, titrated drug dose 1000 nM
[19] = replicate R2, titrated drug dose 3000 nM
[20] = replicate R2, titrated drug dose 10000 nM
[21] = replicate R3, titrated drug dose 3 nM
[22] = replicate R3, titrated drug dose 10 nM
[23] = replicate R3, titrated drug dose 30 nM
[24] = replicate R3, titrated drug dose 100 nM
[25] = replicate R3, titrated drug dose 300 nM
[26] = replicate R3, titrated drug dose 1000 nM
[27] = replicate R3, titrated drug dose 3000 nM
[28] = replicate R3, titrated drug dose 10000 nM

Protocol: Cells were seeded at 5000 cells/well into 96-well flat bottom plates (Eppendorf) and allowed to attach overnight. […] Cells were incubated for 72 h at 37 °C and 5% CO2. Cell confluence readouts at 72 h were either normalized to their initial confluence using the Incucyte software (AsPC-1) or used without prior normalization (all others). […] Each experiment was performed in triplicates, the data was plotted as mean ± standard deviation (s.d.).

`Nc1nn2cc(F)cnc2c1C(=O)Nc1cncc(F)c1N1CCC(C(=O)N2CCN(C3COC3)CC2)CC1` [Gartisertib] was tested, and the Curve slope [1] was 1.84 and 2.11 and 1.85, the Curve bottom [1] was 0.97 and 0.99 and 1.02 and the Curve top [1] was 0.32 and 0.29 and 0.28. The Curve slope [2] was 1.70 and 3.25 and 2.63, the Curve bottom [2] was 0.97 and 0.89 and 0.93 and the Curve top [2] was 0.47 and 0.39. For the same molecule, the Curve slope [3] was 1.86 and 2.66 and 1.99, the Curve bottom [3] was 1.01 and 0.93 and 0.97 and the Curve top [3] was 0.45 and 0.36. The Curve bottom [4] was 0.93 and 0.90 and 0.88, the Curve top [4] was 0.47 and 0.36 and the Response (GEM 0 nM, ATRi 3 nM) was 2.96 and 3.43 and 3.57. The Response (GEM 0 nM, ATRi 10 nM) was 3.28 and 3.77 and 3.92, the Response (GEM 0 nM, ATRi 30 nM) was 3.05 and 3.68 and the Response (GEM 1 nM + ATRi 3 nM) was 3.14 and 3.82 and 3.86. For the same molecule, the Response (GEM 1 nM + ATRi 10 nM) was 3.23 and 3.93 and 3.90, the Response (GEM 1 nM + ATRi 30 nM) was 2.84 and 3.74 and the Response (GEM 3 nM + ATRi 3 nM) was 3.14 and 3.83 and 3.74. For the same molecule, the Response (GEM 3 nM + ATRi 10 nM) was 3.01 and 3.70 and 3.66, the Response (GEM 3 nM + ATRi 30 nM) was 3.03 and 3.39 and the Response (GEM 10 nM + ATRi 3 nM) was 2.77 and 3.58 and 3.45. The Response (GEM 10 nM + ATRi 10 nM) was 2.54 and 2.78 and 2.71, the Response (GEM 10 nM + ATRi 30 nM) was 1.88 and 1.90 and 1.98 and the Response (GEM 30 nM + ATRi 3 nM) was 2.10 and 2.28 and 2.14. For the same molecule, the Response (GEM 30 nM + ATRi 10 nM) was 1.63 and 1.61 and 1.64, the Response (GEM 30 nM + ATRi 30 nM) was 1.75 and 1.65 and 1.57 and the Response (GEM 100 nM + ATRi 3 nM) was 1.68 and 1.66 and 1.64. The Response (GEM 100 nM + ATRi 10 nM) was 1.57 and 1.53 and 1.56, the Response (GEM 100 nM + ATRi 30 nM) was 1.53 and 1.59 and 1.47 and the Response (GEM 300 nM + ATRi 3 nM) was 1.57 and 1.60 and 1.54. For the same molecule, the Response (GEM 300 nM + ATRi 10 nM) was 1.52 and 1.50, the Response (GEM 300 nM + ATRi 30 nM) was 1.48 and 1.44 and 1.43 and the Response (GEM 1000 nM + ATRi 3 nM) was 1.57 and 1.62. For the same molecule, the Response (GEM 1000 nM + ATRi 10 nM) was 1.40 and 1.55 and 1.43, the Response (GEM 1000 nM + ATRi 30 nM) was 1.36 and 1.45 and 1.40 and the Response (GEM 3000 nM + ATRi 3 nM) was 1.36 and 1.58 and 1.49. The Response (GEM 3000 nM + ATRi 10 nM) was 1.38 and 1.44 and 1.37, the Response (GEM 3000 nM + ATRi 30 nM) was 1.32 and 1.42 and 1.36 and the “AsPC-1 viability (ratio)” value [5] was 0.9 ratio. The “AsPC-1 viability mean (ratio)” value [5] was 0.59 ratio, the “Raw data (confluence at 72 h/confluence at 0 h)” value (“Raw data” for short) [5] was 2.89 and the “AsPC-1 viability (ratio)” value [6] was 1.01 ratio. For the same molecule, the “AsPC-1 viability mean (ratio)” value [6] was 0.99 ratio, the “Raw data” value [6] was 3.24 and the “AsPC-1 viability (ratio)” value [7] was 0.95 ratio. The “AsPC-1 viability mean (ratio)” value [7] was 0.48 ratio, the “Raw data” value [7] was 3.04 and the “AsPC-1 viability (ratio)” value [8] was 0.63 ratio. For the same molecule, the “AsPC-1 viability mean (ratio)” value [8] was 0.45 ratio, the “Raw data” value [8] was 2.03 and the “AsPC-1 viability (ratio)” value [9] was 0.44 ratio. The “AsPC-1 viability mean (ratio)” value [9] was 0.4 ratio, the “Raw data” value [9] was 1.4 and the “AsPC-1 viability (ratio)” value [10] was 0.37 ratio. The “AsPC-1 viability mean (ratio)” value [10] was 0.54 ratio, the “Raw data” value [10] was 1.19 and the “AsPC-1 viability (ratio)” value [11] was 0.33 ratio. The “AsPC-1 viability mean (ratio)” value [11] was 0.49 ratio, the “Raw data” value [11] was 1.04 and the “AsPC-1 viability (ratio)” value [12] was 0.27 ratio. The “AsPC-1 viability mean (ratio)” value [12] was 0.45 ratio, the “Raw data” value [12] was 0.87 and the “AsPC-1 viability (ratio)” value [13] was 1.01 ratio. For the same molecule, the “AsPC-1 viability mean (ratio)” value [13] was 0.6 ratio, the “Raw data” value [13] was 4.15 and the “AsPC-1 viability (ratio)” value [14] was 1 ratio. For the same molecule, the “AsPC-1 viability mean (ratio)” value [14] was 1.08 ratio, the “Raw data” value [14] was 4.13 and the “AsPC-1 viability (ratio)” value [15] was 0.94 ratio. For the same molecule, the “AsPC-1 viability mean (ratio)” value [15] was 0.49 ratio, the “Raw data” value [15] was 3.88 and the “AsPC-1 viability (ratio)” value [16] was 0.73 ratio. For the same molecule, the “AsPC-1 viability mean (ratio)” value [16] was 0.44 ratio, the “Raw data” value [16] was 3.03 and the “AsPC-1 viability (ratio)” value [17] was 0.38 ratio. The “AsPC-1 viability mean (ratio)” value [17] was 0.4 ratio, the “Raw data” value [17] was 1.58 and the “AsPC-1 viability (ratio)” value [18] was 0.31 ratio. For the same molecule, the “AsPC-1 viability mean (ratio)” value [18] was 0.53 ratio, the “Raw data” value [18] was 1.27 and the “AsPC-1 viability (ratio)” value [19] was 0.28 ratio. For the same molecule, the “AsPC-1 viability mean (ratio)” value [19] was 0.92 ratio, the “Raw data” value [19] was 1.17 and the “AsPC-1 viability (ratio)” value [20] was 0.29 ratio. The “AsPC-1 viability mean (ratio)” value [20] was 0.47 ratio, the “Raw data” value [20] was 1.19 and the “AsPC-1 viability (ratio)” value [21] was 1.02 ratio. For the same molecule, the “AsPC-1 viability mean (ratio)” value [21] was 0.58 ratio, the “Raw data” value [21] was 4.1 and the “AsPC-1 viability (ratio)” value [22] was 0.97 ratio. The “AsPC-1 viability mean (ratio)” value [22] was 0.53 ratio, the “Raw data” value [22] was 3.9 and the “AsPC-1 viability (ratio)” value [23] was 0.94 ratio. For the same molecule, the “AsPC-1 viability mean (ratio)” value [23] was 0.35 ratio, the “Raw data” value [23] was 3.77 and the “AsPC-1 viability (ratio)” value [24] was 0.8 ratio. The “AsPC-1 viability mean (ratio)” value [24] was 0.35 ratio, the “Raw data” value [24] was 3.2 and the “AsPC-1 viability (ratio)” value [25] was 0.41 ratio. For the same molecule, the “AsPC-1 viability mean (ratio)” value [25] was 0.34 ratio, the “Raw data” value [25] was 1.63 and the “AsPC-1 viability (ratio)” value [26] was 0.33 ratio. The “AsPC-1 viability mean (ratio)” value [26] was 0.47 ratio, the “Raw data” value [26] was 1.34 and the “AsPC-1 viability (ratio)” value [27] was 0.29 ratio. For the same molecule, the “AsPC-1 viability mean (ratio)” value [27] was 0.35 ratio, the “Raw data” value [27] was 1.18 and the “AsPC-1 viability (ratio)” value [28] was 0.25 ratio. The “AsPC-1 viability mean (ratio)” value [28] was 0.34 ratio, the “Raw data” value [28] was 1 and the EC50 (ASPC1, 72 h, AsPC1, Experiment ATRi (ATR inhibitor alone), single replicates R1-R3) was 107 nM. It also gave an EC50 (ASPC1, 72 h, read-out: EC50 (cell growth), ATR inhibitor as single agent) of 128 nM, an EC50 (ASPC1, 72 h, read-out: EC50 mean [nM], AsPC1, Experiment ATRi (ATR inhibitor alone), mean of replicates) of 128 nM and an EC50 (ASPC1, 72 h, read-out: pEC50, AsPC1 (converted), Experiment ATRi (ATR inhibitor alone), single replicates R1-R3) of 107 nM. The EC50 (ASPC1, read-out: EC50 mean [nM], AsPC1, Experiment ATRi (ATR inhibitor alone), mean of replicates) was 128 nM, the Ratio (GEM 0 nM, ATRi 3 nM) was 0.90 and 0.92 and 1.01 and 0.83 and 1.02 and 0.89 and the Ratio (GEM 0 nM, ATRi 10 nM) was 1.01 and 1.02 and 1.00 and 0.91 and 0.97 and 0.98. For the same molecule, the Ratio (GEM 0 nM, ATRi 30 nM) was 0.95 and 0.94 and 0.89, the Ratio (GEM 0 nM, ATRi 100 nM) was 0.63 and 0.73 and 0.80 and the Ratio (GEM 0 nM, ATRi 300 nM) was 0.44 and 0.38 and 0.41. The Ratio (GEM 0 nM, ATRi 1000 nM) was 0.37 and 0.31 and 0.33, the Ratio (GEM 0 nM, ATRi 3000 nM) was 0.33 and 0.28 and 0.29 and the Ratio (GEM 0 nM, ATRi 10000 nM) was 0.27 and 0.29 and 0.25. The Ratio (GEM 1 nM + ATRi 3 nM) was 0.98 and 0.92 and 0.96, the Ratio (GEM 1 nM + ATRi 10 nM) was 1.01 and 0.95 and 0.97 and the Ratio (GEM 1 nM + ATRi 30 nM) was 0.89 and 0.91 and 0.87. For the same molecule, the Ratio (GEM 3 nM + ATRi 3 nM) was 0.98 and 0.93, the Ratio (GEM 3 nM + ATRi 10 nM) was 0.94 and 0.89 and 0.91 and the Ratio (GEM 3 nM + ATRi 30 nM) was 0.95 and 0.82 and 0.85. For the same molecule, the Ratio (GEM 10 nM + ATRi 3 nM) was 0.87 and 0.86, the Ratio (GEM 10 nM + ATRi 10 nM) was 0.79 and 0.67 and 0.68 and the Ratio (GEM 10 nM + ATRi 30 nM) was 0.59 and 0.46 and 0.49. For the same molecule, the Ratio (GEM 30 nM + ATRi 3 nM) was 0.66 and 0.55 and 0.53, the Ratio (GEM 30 nM + ATRi 10 nM) was 0.51 and 0.39 and 0.41 and the Ratio (GEM 30 nM + ATRi 30 nM) was 0.55 and 0.40 and 0.39. For the same molecule, the Ratio (GEM 100 nM + ATRi 3 nM) was 0.52 and 0.40 and 0.41, the Ratio (GEM 100 nM + ATRi 10 nM) was 0.49 and 0.37 and 0.39 and the Ratio (GEM 100 nM + ATRi 30 nM) was 0.48 and 0.38 and 0.37. For the same molecule, the Ratio (GEM 300 nM + ATRi 3 nM) was 0.49 and 0.39 and 0.38, the Ratio (GEM 300 nM + ATRi 10 nM) was 0.47 and 0.37 and the Ratio (GEM 300 nM + ATRi 30 nM) was 0.46 and 0.35 and 0.36. The Ratio (GEM 1000 nM + ATRi 3 nM) was 0.49 and 0.39, the Ratio (GEM 1000 nM + ATRi 10 nM) was 0.44 and 0.38 and 0.36 and the Ratio (GEM 1000 nM + ATRi 30 nM) was 0.43 and 0.35. The Ratio (GEM 3000 nM + ATRi 3 nM) was 0.43 and 0.38 and 0.37, the Ratio (GEM 3000 nM + ATRi 10 nM) was 0.43 and 0.35 and 0.34 and the Ratio (GEM 3000 nM + ATRi 30 nM) was 0.41 and 0.34.
